Laboratory results reported in ChEMBL document CHEMBL1201862, “PubChem BioAssay data set” (2004).
Where a name gives a salt, the structure may show the parent alone. Active and inactive are the calls of the source.

Experiments:
[1] = target: T1, Sentrin-specific protease 8 (Homo sapiens, UniProt Q96LD8); test: inhibition of human SENP8 cleavage activity – biochemical, luminescence, SAR follow-up (AID 504501); format: functional
T1 sequence (Q96LD8 whole entry): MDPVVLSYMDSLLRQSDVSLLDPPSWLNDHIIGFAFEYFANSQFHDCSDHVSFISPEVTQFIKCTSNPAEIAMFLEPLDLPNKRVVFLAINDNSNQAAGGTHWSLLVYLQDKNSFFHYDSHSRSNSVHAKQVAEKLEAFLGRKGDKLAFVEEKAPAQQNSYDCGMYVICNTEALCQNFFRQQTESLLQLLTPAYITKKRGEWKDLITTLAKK

Caspase-3 = target: T2, Caspase-3 (Homo sapiens, UniProt P42574); test: SAR Analysis of small molecule inhibitors of Sentrin-specific proteases (SENPs) using a Caspase-3 Selectivity assay. [Related pubchem assays (depositor defined):AID2540, AID2599, AID434973, AID489001]; format: functional
T2 sequence (P42574 whole entry): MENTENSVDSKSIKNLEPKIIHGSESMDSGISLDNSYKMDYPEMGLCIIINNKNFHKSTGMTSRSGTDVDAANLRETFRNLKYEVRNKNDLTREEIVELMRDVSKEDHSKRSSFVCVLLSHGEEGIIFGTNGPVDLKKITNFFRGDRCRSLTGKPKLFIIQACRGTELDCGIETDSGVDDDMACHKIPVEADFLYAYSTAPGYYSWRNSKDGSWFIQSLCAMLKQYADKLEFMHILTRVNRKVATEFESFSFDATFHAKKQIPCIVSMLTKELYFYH

[2] = target: T3, Sentrin-specific protease 7 (Homo sapiens, UniProt Q9BQF6); test: inhibition of human SENP7 cleavage activity – biochemical, luminescence, SAR follow-up (AID 504497); format: functional
T3 sequence (Q9BQF6 whole entry): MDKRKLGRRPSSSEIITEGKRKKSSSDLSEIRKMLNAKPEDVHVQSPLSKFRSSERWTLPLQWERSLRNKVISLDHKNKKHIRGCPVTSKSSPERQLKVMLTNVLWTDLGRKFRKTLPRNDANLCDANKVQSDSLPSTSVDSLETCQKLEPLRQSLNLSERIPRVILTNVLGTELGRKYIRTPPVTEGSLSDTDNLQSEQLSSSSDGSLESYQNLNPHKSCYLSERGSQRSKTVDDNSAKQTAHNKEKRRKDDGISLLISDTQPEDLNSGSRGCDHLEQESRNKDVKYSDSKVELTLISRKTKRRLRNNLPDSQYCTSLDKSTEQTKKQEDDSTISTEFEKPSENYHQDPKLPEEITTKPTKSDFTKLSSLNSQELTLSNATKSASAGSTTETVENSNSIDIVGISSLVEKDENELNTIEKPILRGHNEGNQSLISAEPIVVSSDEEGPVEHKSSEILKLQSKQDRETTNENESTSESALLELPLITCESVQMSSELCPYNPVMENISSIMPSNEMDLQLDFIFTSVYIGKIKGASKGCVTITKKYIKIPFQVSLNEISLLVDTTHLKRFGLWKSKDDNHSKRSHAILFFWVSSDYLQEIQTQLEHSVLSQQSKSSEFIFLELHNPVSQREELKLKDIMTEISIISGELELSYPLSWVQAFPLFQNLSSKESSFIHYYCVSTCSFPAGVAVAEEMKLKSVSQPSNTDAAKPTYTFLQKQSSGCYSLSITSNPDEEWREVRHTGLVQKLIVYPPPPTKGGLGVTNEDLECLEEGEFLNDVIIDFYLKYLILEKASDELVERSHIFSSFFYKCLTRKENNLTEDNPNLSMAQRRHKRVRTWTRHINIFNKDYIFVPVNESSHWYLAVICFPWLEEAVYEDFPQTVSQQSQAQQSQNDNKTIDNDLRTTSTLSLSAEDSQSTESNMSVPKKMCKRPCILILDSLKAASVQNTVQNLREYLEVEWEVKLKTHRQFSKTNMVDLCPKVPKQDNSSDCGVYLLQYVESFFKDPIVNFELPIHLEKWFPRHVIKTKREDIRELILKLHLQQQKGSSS

[3] = target: T1, Sentrin-specific protease 8; test: inhibition of sentrin protease 8 – biochemical, luminescence, set 2, SAR follow-up (AID 588601); format: functional
[4] = target: T4, Sentrin-specific protease 6 (Homo sapiens, UniProt Q9GZR1); test: inhibition of human SENP6 catalytic domain – biochemical, luminescence, set 2, SAR follow-up (AID 588598); format: functional
T4 sequence (Q9GZR1 whole entry): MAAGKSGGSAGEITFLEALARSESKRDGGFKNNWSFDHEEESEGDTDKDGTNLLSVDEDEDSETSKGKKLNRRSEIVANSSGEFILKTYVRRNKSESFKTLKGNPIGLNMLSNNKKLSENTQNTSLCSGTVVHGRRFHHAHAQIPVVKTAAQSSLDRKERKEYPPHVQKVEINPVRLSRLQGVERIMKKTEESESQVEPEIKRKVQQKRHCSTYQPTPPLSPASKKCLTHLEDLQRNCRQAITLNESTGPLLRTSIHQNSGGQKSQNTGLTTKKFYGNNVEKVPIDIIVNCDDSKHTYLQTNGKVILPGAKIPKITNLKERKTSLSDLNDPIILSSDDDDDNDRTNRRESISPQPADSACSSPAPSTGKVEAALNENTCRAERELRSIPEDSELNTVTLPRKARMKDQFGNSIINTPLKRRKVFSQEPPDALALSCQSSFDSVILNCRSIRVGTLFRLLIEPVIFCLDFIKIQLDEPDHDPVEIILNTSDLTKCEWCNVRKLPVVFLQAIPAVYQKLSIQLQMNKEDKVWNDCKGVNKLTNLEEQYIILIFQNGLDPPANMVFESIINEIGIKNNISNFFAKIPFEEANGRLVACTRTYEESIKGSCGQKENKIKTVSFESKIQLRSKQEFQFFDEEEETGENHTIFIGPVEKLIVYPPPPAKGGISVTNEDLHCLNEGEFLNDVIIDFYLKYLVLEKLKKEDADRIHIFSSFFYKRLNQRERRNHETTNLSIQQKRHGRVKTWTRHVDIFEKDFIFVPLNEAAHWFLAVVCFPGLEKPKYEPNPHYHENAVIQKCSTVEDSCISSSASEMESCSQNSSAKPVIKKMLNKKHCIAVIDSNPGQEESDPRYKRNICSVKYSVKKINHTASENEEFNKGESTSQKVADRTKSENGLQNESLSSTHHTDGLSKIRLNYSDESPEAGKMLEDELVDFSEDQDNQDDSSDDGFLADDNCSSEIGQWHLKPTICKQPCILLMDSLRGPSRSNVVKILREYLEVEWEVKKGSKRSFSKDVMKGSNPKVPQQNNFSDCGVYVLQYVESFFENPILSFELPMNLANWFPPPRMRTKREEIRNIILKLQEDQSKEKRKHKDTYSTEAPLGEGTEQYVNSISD

[5] = target: T4, Sentrin-specific protease 6; test: SAR Analysis of small molecule inhibitors of Sentrin-specific protease 6 (SENP6) using a Luminescent assay. [Related pubchem assays (depositor defined):AID2582, AID2599]; format: functional
[6] = target: T3, Sentrin-specific protease 7; test: inhibition of human SENP7 cleavage activity – biochemical, luminescence, set 2, SAR follow-up (AID 588600); format: functional
Phospholipase A2 = Phospholipase A2 (Homo sapiens, UniProt P04054); format: functional;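 note: confirmatory dose-response counterscreen on phospholipase A2, testing hits that came from an ultra-high-throughput screen for ATG4B inhibitors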
Cysteine protease ATG4B = Cysteine protease ATG4B (Homo sapiens, UniProt Q9Y4P1); format: functional;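 note: Fluorescence-based dose-response confirmation assay measuring inhibition of ATG4B activity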
[7] = reduced cellular PGC1a acetyl-lysine signal – cell-based, cherry-picked samples, dose response (AID 720514); format: functional;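 note: potency may reflect raised or lowered acetylation signal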
[8] = target: Beta-2 adrenergic receptor (Homo sapiens, UniProt P07550); test: ADRB2 activation measured by internalization – cell-based, FAP fluorogen, flow cytometry, cherry pick 1, dose response (AID 588763); format: functional
[9] = reduction of Shn3 3'UTR-driven luciferase in osteoblasts – cell-based, Clone20 osteoblasts, firefly luciferase, cherry-picked, dose response (AID 624132); format: functional;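 note: firefly luciferase luminescence from reporter carrying the Shn3 3'UTR in osteoblasts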
[10] = loss of viability in HepG2 cells – cell-based, CellTiter-Glo, cherry-picked, cytotoxicity control for Shn3 inhibitor project, dose response (AID 624134); format: functional
[11] = target: Heat shock protein HSP 90-alpha (Homo sapiens, UniProt P07900); format: functional, organism-based
Fatty acid synthase [12] = target: T5, Fatty acid synthase (Homo sapiens, UniProt P49327); test: inhibition of human FAS-TE enzyme activity – biochemical, endpoint fluorescence intensity, uHTS hits, dose response (AID 624327); format: functional;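 note: fluorescence from hydrolysis of an O-methyl fluorescein acyl ester substrate by the enzyme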
Fatty acid synthase [13] = target: T5, Fatty acid synthase; test: inhibition of human FAS-TE enzyme activity – biochemical, kinetic fluorescence intensity, dose response (AID 624326); format: functional;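 note: rate of fluorescence rise from hydrolysis of a fluorogenic O-methyl fluorescein ester substrate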
CHO = CHO cell viability loss, potency – luminescence, cytotoxicity control for TLR9-MyD88 binding inhibitor project, dose response (AID 588339); format: functional, cell-based, hamster; settings: Cricetulus griseus;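 note: CHO cells stably coexpressing TLR9 and MyD88 fusions from primary screen; compound exposure lasted 48 hours before viability readout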
Beta Lactamase = Beta Lactamase (Pseudomonas aeruginosa, UniProt Q932Y6); test: BLA reporter interference, concentration series – BLA reporter cells, FRET fluorescence, artefact control for TLR9-MyD88 binding inhibitor project, dose response (AID 588341); format: cell-based;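 note: cell based assay in CHO-K1 cells stably expressing beta-lactamase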
[14] = non-specific 3'UTR reporter inhibition in Clone20-Shn3RL – cell-based, Renilla luciferase, cherry-picked, counter-screen for Shn3 inhibitor project, dose response (AID 624133); format: functional
[15] = target: T6, Zinc finger protein mex-5 (Caenorhabditis elegans, UniProt Q9XUB2); test: potency of MEX-5 RNA-binding blockers – biochemical, C. elegans, fluorescence polarization, dose response (AID 1960)
T6 sequence (Q9XUB2 whole entry): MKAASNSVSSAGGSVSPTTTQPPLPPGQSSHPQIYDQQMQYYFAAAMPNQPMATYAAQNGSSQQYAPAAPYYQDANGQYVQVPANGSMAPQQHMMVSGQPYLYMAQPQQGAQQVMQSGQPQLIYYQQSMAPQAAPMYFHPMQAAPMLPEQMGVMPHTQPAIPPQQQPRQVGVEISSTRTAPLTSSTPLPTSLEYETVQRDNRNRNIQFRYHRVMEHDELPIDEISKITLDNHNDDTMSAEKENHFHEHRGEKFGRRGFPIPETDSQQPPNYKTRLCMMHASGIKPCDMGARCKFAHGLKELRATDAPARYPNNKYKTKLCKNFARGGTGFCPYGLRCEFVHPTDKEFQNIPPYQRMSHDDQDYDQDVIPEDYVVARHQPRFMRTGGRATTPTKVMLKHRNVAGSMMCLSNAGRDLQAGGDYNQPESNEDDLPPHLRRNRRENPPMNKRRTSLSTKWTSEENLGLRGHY

[16] = viability of HCT116 lacking mutant beta-catenin – cell-based, human colon tumor, dose response (AID 1045); format: functional;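 note: HCT116 colon tumor cells with beta catenin knocked out; cells exposed to compound for 60 hours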
[17] = viability of PTEN-deleted HCT116 cells – cell-based, HCT116 PTEN knockout, dose response (AID 1047); format: functional;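 note: HCT116 colon tumor cells with PTEN knocked out; cells exposed to compound for 60 hours before readout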
[18] = target: T7, RNA-binding protein pos-1 (Caenorhabditis elegans, UniProt G5EF15); test: disruptors of C. elegans POS-1 RNA interaction – biochemical, fluorescence polarization, dose response (AID 1964);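 note: purified POS-1 fused to maltose binding protein made in E. coli; potency of compounds blocking POS-1 binding to fluorescent RNA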
T7 sequence (G5EF15 whole entry): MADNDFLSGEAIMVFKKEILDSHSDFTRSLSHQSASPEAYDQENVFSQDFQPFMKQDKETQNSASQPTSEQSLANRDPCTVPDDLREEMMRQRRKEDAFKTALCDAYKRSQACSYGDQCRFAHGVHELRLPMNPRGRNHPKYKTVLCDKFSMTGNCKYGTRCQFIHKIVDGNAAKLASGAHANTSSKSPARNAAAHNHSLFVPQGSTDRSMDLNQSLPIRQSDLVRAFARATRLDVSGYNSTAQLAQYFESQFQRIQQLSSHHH

T5 sequence (P49327 whole entry): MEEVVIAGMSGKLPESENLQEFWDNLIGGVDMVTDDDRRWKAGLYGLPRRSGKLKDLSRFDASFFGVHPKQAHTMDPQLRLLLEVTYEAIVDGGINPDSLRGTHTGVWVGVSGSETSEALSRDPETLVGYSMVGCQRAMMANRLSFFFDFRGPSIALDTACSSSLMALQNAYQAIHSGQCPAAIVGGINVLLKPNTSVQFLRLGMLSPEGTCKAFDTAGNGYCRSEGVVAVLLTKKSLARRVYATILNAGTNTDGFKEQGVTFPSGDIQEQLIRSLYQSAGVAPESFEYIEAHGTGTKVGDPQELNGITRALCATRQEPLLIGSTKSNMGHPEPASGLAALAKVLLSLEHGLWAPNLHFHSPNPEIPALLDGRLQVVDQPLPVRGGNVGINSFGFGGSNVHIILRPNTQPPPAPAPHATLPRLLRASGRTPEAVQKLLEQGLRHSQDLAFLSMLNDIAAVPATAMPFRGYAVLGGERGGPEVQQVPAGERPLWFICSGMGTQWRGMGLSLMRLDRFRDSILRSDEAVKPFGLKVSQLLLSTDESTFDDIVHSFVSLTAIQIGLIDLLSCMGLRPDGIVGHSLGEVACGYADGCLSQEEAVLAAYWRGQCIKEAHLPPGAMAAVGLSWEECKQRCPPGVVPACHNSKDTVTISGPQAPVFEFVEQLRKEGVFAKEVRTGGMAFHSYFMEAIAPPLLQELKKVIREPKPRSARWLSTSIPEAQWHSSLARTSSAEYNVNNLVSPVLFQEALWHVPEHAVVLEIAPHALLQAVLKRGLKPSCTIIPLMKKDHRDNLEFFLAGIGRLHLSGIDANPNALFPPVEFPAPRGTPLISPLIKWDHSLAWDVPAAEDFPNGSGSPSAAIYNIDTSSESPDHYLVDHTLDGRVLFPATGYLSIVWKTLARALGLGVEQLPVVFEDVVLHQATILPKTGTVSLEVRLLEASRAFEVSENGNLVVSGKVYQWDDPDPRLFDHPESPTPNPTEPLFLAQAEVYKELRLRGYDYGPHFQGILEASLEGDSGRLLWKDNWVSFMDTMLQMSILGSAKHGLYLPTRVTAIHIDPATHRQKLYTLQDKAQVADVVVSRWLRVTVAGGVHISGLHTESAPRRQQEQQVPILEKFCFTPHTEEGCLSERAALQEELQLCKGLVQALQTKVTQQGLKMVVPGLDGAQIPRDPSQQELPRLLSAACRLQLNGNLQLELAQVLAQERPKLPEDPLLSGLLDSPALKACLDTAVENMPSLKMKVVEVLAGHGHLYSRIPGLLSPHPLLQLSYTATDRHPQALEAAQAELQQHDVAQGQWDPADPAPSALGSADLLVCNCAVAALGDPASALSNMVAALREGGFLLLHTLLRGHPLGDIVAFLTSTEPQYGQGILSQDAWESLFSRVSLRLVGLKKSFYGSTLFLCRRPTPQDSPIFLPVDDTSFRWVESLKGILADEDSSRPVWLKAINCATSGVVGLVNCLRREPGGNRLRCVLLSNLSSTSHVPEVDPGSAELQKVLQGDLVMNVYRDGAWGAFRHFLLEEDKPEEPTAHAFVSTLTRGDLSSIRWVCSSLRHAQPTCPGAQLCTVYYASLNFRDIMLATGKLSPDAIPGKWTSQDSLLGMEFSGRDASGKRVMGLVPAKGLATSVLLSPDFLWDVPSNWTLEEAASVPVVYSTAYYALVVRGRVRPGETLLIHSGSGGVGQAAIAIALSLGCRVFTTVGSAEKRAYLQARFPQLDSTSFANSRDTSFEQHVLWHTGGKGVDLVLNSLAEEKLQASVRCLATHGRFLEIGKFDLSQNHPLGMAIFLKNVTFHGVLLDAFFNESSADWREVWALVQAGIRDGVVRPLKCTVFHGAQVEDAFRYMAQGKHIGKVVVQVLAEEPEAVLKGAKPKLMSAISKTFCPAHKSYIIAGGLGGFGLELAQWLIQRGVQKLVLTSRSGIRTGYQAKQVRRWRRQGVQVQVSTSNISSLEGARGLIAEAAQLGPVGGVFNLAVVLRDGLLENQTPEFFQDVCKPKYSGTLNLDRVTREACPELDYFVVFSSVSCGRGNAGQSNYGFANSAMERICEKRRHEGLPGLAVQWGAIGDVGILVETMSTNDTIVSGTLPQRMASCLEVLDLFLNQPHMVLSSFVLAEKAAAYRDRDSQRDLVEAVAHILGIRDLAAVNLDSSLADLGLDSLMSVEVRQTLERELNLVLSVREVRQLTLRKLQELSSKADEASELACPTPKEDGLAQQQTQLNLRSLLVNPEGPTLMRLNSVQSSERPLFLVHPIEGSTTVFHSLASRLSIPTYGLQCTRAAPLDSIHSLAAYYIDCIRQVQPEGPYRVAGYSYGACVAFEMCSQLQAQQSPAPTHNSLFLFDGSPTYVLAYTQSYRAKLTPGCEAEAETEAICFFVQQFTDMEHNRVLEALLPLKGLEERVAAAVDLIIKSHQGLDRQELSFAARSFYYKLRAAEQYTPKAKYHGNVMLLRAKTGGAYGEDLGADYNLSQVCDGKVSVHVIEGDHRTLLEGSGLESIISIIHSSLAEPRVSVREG
Sequence of Beta-2 adrenergic receptor (P07550 whole entry): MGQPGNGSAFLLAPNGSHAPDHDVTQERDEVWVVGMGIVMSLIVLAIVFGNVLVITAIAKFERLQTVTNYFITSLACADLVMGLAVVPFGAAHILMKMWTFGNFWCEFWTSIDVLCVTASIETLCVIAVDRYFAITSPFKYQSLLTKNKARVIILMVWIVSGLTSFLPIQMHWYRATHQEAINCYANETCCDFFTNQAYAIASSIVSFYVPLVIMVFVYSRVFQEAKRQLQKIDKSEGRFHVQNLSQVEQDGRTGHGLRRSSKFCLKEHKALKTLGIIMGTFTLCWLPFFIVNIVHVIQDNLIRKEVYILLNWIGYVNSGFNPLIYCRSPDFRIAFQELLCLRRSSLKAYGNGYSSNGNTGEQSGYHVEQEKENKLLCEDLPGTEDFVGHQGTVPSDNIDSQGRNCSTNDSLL
Sequence of Cysteine protease ATG4B (Q9Y4P1 whole entry): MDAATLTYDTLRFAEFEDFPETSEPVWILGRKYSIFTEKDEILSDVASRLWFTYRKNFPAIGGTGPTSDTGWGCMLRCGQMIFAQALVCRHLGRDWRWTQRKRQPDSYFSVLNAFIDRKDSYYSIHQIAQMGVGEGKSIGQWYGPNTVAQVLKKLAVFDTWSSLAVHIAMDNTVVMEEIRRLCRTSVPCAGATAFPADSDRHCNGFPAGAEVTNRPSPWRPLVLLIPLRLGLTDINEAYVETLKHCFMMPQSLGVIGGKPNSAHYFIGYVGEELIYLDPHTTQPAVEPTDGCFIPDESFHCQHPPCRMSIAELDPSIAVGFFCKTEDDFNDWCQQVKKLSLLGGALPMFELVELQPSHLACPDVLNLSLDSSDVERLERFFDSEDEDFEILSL
Sequence of Phospholipase A2 (P04054 whole entry): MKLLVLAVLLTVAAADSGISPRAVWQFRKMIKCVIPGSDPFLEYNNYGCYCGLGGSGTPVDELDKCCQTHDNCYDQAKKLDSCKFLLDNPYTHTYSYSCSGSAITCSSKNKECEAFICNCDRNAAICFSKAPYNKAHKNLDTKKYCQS
Sequence of Beta Lactamase (Q932Y6 whole entry): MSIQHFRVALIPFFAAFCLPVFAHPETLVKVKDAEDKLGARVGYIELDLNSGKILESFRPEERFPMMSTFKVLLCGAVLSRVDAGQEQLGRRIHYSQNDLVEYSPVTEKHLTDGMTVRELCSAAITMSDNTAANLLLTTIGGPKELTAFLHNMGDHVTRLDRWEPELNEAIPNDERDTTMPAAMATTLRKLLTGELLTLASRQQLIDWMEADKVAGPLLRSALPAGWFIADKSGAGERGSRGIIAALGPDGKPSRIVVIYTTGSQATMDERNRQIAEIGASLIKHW

Which IC50 [1] does the source give for O=C(Nc1nc2ccccc2s1)c1cc2ccccc2s1 here?
Its IC50 is 0.66 µM (active).

What about the IC50 (Caspase-3) of the same compound?
The IC50 was 0.51 µM (active).

And the IC50 [2]?
Its IC50 is 0.49 µM (active).

What about the IC50 [3] of the same compound?
Its IC50 is 0.543 µM (active).

And the IC50 [4]?
The IC50 was 0.58 µM (active).

And the IC50 [5]?
Its IC50 is 0.67 µM (active).

What about the IC50 [6] of the same compound?
The IC50 was 0.589 µM (active).

Which results are given for Fc1ccc(CNC(=S)NCc2ccccc2)cc1?
IC50 (Phospholipase A2): 10.6 µM (active); IC50 (Cysteine protease ATG4B): 18.4 µM (active)

Which results are given for CCCNC(=O)c1nnsc1S(=O)(=O)c1ccc(Cl)cc1?
AC50 [7]: 11.7 µM (active); EC50 [8]: 9.54 µM (active); AC50 [9]: 3.63 µM (active); AC50 [10]: 16.4 µM (active); AC50 [11]: 0.602 µM (active); IC50 (Fatty acid synthase [12]): 12.7 µM (active); IC50 (Fatty acid synthase [13]): 10.4 µM (active); IC50 (CHO): 2.45 µM (active); IC50 (Beta Lactamase): 16.3 µM (inactive); AC50 [14]: 2.88 µM (active)

For COc1ccc(C(CC(=O)NCc2ccccc2)C(C)C)cc1 (stereo unspecified), which IC50 (Phospholipase A2) is on record?
The IC50 was 7.25 µM (active).

And the IC50 (Cysteine protease ATG4B)?
Its IC50 is 8.14 µM (active).

For CCC(NC(C)C)C(O)c1ccc(O)c(O)c1 (stereo unspecified) [ISOETHARINE MESYLATE], which EC50 [15] is on record?
Its EC50 is 125 µM (active).

What about the EC50 [8] of the same compound?
Its EC50 is 3.84 µM (active).

What about the EC50 [16] of the same compound?
Its EC50 is 20.7 µM (active).

And the EC50 [17]?
Its EC50 is 24.1 µM (active).

What about the EC50 [18] of the same compound?
The EC50 was > 300 µM (not active).
